Source: PMC7047128, “The Putative TCP-1 Chaperonin Is an Important Player Involved in Sialic Acid-Dependent Host Cell Invasion by Toxoplasma gondii” (Frontiers in Microbiology, 2020)

Target: T1, TgTCP-1 (putative TCP-1 chaperonin, TGME49_318410) (Toxoplasma gondii, UniProt A0A125YLR8)
T1 construct: full-length CDS, aa 1-537, N-terminal GST tag kept (pGEX-4T-1), E. coli BL21 (DE3), about 85 kDa
Assay: pull-down on sialic acid-agarose with competition by free sialic acid, anti-GST Western blot
Type: binding
Conditions: 1 uM GST-TgTCP-1; free sialic acid 0.001-100 mg/mL; PBS wash; 4 C

T1 sequence (A0A125YLR8 entry or part of it): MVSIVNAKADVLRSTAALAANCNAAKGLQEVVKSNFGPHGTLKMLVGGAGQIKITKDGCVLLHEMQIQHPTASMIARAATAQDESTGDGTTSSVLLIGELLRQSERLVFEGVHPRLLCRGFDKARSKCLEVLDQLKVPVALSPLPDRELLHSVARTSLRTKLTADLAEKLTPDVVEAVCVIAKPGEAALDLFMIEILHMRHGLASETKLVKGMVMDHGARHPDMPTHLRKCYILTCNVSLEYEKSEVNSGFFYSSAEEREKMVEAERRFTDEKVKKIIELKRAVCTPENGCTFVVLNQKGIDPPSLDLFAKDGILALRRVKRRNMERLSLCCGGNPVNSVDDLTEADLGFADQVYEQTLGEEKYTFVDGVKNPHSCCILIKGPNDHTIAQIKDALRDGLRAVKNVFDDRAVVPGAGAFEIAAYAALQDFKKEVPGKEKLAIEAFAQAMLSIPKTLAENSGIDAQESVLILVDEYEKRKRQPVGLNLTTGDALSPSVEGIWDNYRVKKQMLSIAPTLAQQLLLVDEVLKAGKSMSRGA

CC(=O)N[C@H]1[C@H]([C@H](O)[C@H](O)CO)OC(O)(C(=O)O)C[C@@H]1O (stereo partly shown) [sialic acid] was tested, and the “pull-down on sialic acid-agarose with competition by free sialic acid, anti-GST” value was “binding of GST-TgTCP-1 to sialic acid-agarose was inhibited by sialic acid in a dose dependent manner”.
